# According to article PMC7613515, “Reading and erasing of the phosphonium analogue of trimethyllysine by epigenetic proteins” (Communications Chemistry, 2022):
# How the values were obtained:
# SGF29TTD (R115–K293) = biological target: T1, SGF29TTD (R115–K293) (Homo sapiens, UniProt Q96ES7); test: ITC, association of histone H3 peptides with SGF29TTD; assay type: binding
# T1 construct: SGF29TTD (R115–K293); made in house; host or cells: E. coli
# T1 sequence (Q96ES7 115-293): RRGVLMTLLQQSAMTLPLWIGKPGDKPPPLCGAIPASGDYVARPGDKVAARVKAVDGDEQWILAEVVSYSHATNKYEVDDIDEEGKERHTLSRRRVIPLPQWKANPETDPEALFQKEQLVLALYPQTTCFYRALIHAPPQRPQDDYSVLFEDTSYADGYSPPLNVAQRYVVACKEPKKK
# Excerpt: (§1) We investigated the thermodynamics of association of the H3KP4me3 peptide with five representative human reader domains containing either a PHD zinc finger or TTD, i.e. KDM5APHD3 (JARID1A-PHD3, residues M1489–V1641)[10], TAF3PHD (R857–K924)[22], BPTFPHD (L2583–N2751)[23], SGF29TTD (R115–K293)[24] and KDM4ATTD (JMJD2A, Q897-P1011)[25], selected on the basis of their preference for binding Ν^ε-trimethyllysine over other (non)methylation marks (Kme0 < Kme1 < Kme2 < Kme3), and their domain and aromatic cage diversity. The recombinant readers were produced in E. coli following reported procedures. Isothermal titration calorimetric (ITC) analyses were used to determine the dissociation constant (Kd), the Gibbs free energy of binding (ΔG°), the enthalpy of binding (ΔH°), and the entropy of binding (ΔS°). […] (Table 1, Fig. 2, Supplementary Fig. 1).
# (§2) The following purified reader domains: TAF3PHD (R857-K924), KDM5APHD3 (JARID1A, M1489-V1641), BPTFPHD (L2583-N2751), KDM4ATTD (JMJD2A, Q897-P1011) and SGF29TTD (R115-K293) were prepared as reported[10],[22]–[26]. The histone lysine demethylase were produced and purified to high purity via reported procedures KDM3A (JMJD1A, T515-S1317)[41], KDM4AJmjC[39] (JMJD2A, M1-L359), KDM4EJmjC (JMJD2E, M1–Q337)[34] and KDM7B[40] (PHF8, M37-N483 [NP_001171]). KDM5DJmjC was produced using an N-terminal hexa-His tagged KDM4D (KDM4DM1-L358) DNA construct, transformed into BL21(DE3) competent cells for recombinant protein production. Colonies were used to inoculate of LB media (50 mL) containing kanamycin (50 µg·mL^−1) and chloramphenicol (34 µg·mL^−1), which was placed in a 37 °C shaker overnight. The starter culture (10 mL) was used to inoculate TB media (6 × 1 L) containing kanamycin (50 µg·mL^−1) in 2 L baffled shaker flasks. After reaching an of OD600 of ~0.8, the temperature was reduced to 18 °C; at OD600 ~0.9 the cells were induced by the IPTG (0.5 mM) addition. After shaking overnight, the culture was centrifuged (5000 rpm, 10 mins), the media was decanted, and the cell pellet was suspended in Lysis Buffer [HEPES (50 mM), NaCl (500 mM), imidazole (20 mM), glycerol (5%) and TCEP (0.5 mM) in water (pH 7.4)]. The suspension was lysed by passaging through a high-pressure cell breaker (Avestin – EmulsiFlex-C5) for three rounds. The lysate was cleared by centrifugation (60 minutes, 36,000 × g, 4 °C), then loaded onto a Ni NTA gravity column. After extensive rinsing of the Ni-NTA gravity column with lysis buffer, the His-tagged protein was eluted in lysis buffer containing 300 mM imidazole. The eluted protein was concentrated and subjected to gel filtration chromatography using an AKTA Xpress system, an S200 16/600 gel filtration column, and GF buffer [HEPES (50 mM), NaCl (150 mM), glycerol (5%) and TCEP (0.5 mM) in water (pH 7.4)]. The protein identity was verified by LC-MS (ESI-TOF) observing a mass of 43759.7 Da, in accord with the predicted mass of 43751.6 Da.
# ITC studies followed a reported procedure. The buffer used corresponded to that used in the final protein purification step. […] Histone peptide titrations were performed with the same reader batches. Solutions of the reader in buffer (25–40 µM) and of the histone H3 peptide (350–600 µM) in buffer were prepared. […] Heats of dilution for histone peptides determined in control experiments were subtracted from the titration binding data. […]
# TAF3PHD (R857–K924) = biological target: T2, TAF3PHD (R857–K924) (Mus musculus, UniProt Q5HZG4); test: ITC, association of histone H3 peptides with TAF3PHD; assay type: binding, human; details: 25 °C, H3 1-10 peptide, Tris (50 mM), pH 7.5, from 3 to 5 experiments, ± SD
# T2 construct: TAF3PHD (R857–K924); made in house; host or cells: E. coli
# T2 sequence (Q5HZG4 857-924 limits assumed): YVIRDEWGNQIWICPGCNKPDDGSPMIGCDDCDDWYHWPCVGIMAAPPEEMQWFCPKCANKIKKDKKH
# Excerpt: as §1
# as §2, with “After extensive rinsing of the Ni-NTA gravity column with lysis buffer, the His-tagged protein was eluted in lysis buffer containing 300 mM imidazole. The eluted protein was concentrated and subjected to gel filtration chromatography using an AKTA Xpress system, an S200 16/600 gel filtration column, and GF buffer [HEPES (50 mM), NaCl (150 mM), glycerol (5%) and TCEP (0.5 mM) in water (pH 7.4)]. The protein identity was verified by LC-MS (ESI-TOF) observing a mass of 43759.7 Da, in accord with the predicted mass of 43751.6 Da.” left out
# ITC studies followed a reported procedure. […] Histone peptide titrations were performed with the same reader batches. Solutions of the reader in buffer (25–40 µM) and of the histone H3 peptide (350–600 µM) in buffer were prepared. […] Heats of dilution for histone peptides determined in control experiments were subtracted from the titration binding data. […]
# [1] = 25 °C, H3 1-10 peptide, pH 7.5, from 3 to 5 experiments, ± SD
smiles,measurement,setting,value
C[C@H](N)C(=O)N[C@@H](CCCNC(=N)N)C(=O)N[C@H](C(=O)N[C@@H](CCCC[P+](C)(C)C)C(=O)N[C@@H](CCC(N)=O)C(=O)N[C@H](C(=O)N[C@@H](C)C(=O)N[C@@H](CCCNC(=N)N)C(=O)N[C@@H](CCCCN)C(=O)N[C@@H](CO)C(N)=O)[C@@H](C)O)[C@@H](C)O [H3KP4me3],-TΔS°,SGF29TTD (R115–K293); [1],1.0 ± 0.1 kcal/mol
same,ΔG°,SGF29TTD (R115–K293); [1],-7.6 ± 0.1 kcal/mol
same,ΔH°,SGF29TTD (R115–K293); [1],-8.6 ± 0.1 kcal/mol
same,binding affinity relative to H3K4me3,SGF29TTD (R115–K293); SGF29TTD,comparable binding affinity for H3K4me3 and H3KP4me3
same,-TΔS°,TAF3PHD (R857–K924),1.1 ± 0.1 kcal/mol
same,ΔG°,TAF3PHD (R857–K924),-10.0 ± 0.1 kcal/mol
same,ΔH°,TAF3PHD (R857–K924),-11.1 ± 0.1 kcal/mol
